Measured values published in the supplement of paper PMC6045584.
± gives the standard deviation of the averaged measurements.

Legend:
[1] = compound: C[C@H](CN(C)C)Oc1nc(Nc2cc3cccc(Cl)c3cn2)cnc1C#N; assay: surviving fraction relative to DMSO-only wells; higher = less growth inhibition; conditions: exposure time: 5 days
How it was run: (§1)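 Log-phase tumour cells were seeded at 250–500 per well in 384-well plates and, from 24 hours after seeding, exposed continuously for five days to inhibitors at 0.5, 1, 5, 10, 50, 100, 500 and 1000 nM. Surviving fraction is CellTiter-Glo luminescence normalised to the median of DMSO-only wells. Luminescence was measured after 10 minutes at room temperature, and only lines screened three times with replicate Pearson r >0.7 and median Z' >0.3 were kept.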

BEZ-235 = compound: Cn1c(=O)n(-c2ccc(C(C)(C)C#N)cc2)c2c3cc(-c4cnc5ccccc5c4)ccc3ncc21 [BEZ-235]; assay: as above; conditions: exposure time: 5 days
How it was run: as §1

Test System	surviving fraction ([1]; 0.5 nM)	surviving fraction ([1]; 1 nM)	surviving fraction ([1]; 5 nM)	surviving fraction ([1]; 10 nM)	surviving fraction ([1]; 50 nM)	surviving fraction ([1]; 100 nM)	surviving fraction ([1]; 500 nM)	surviving fraction ([1]; 1000 nM)	surviving fraction (BEZ-235; 0.5 nM)	surviving fraction (BEZ-235; 1 nM)	surviving fraction (BEZ-235; 5 nM)	surviving fraction (BEZ-235; 10 nM)	surviving fraction (BEZ-235; 50 nM)	surviving fraction (BEZ-235; 100 nM)	surviving fraction (BEZ-235; 500 nM)	surviving fraction (BEZ-235; 1000 nM)
HCC1395 BREAST	0.957 ± 0.076	1.14 ± 0.13	1.161 ± 0.011	1.15 ± 0.14	1.27 ± 0.16	1.22 ± 0.029	0.729 ± 0.1	0.671 ± 0.15	1.03 ± 0.12	0.967 ± 0.11	1.14 ± 0.095	1.09 ± 0.037	0.988 ± 0.12	1 ± 0.13	0.788 ± 0.12	0.759 ± 0.17
HCC1806 BREAST	1.14 ± 0.095	1.09 ± 0.062	1.25 ± 0.2	1.13 ± 0.055	0.991 ± 0.068	0.633 ± 0.069	0.0587 ± 0.008	0.0547 ± 0.0029	0.958 ± 0.16	0.986 ± 0.14	1.17 ± 0.085	1.15 ± 0.1	0.837 ± 0.016	0.662 ± 0.05	0.388 ± 0.036	0.317 ± 0.041
HCC1954 BREAST	1.14 ± 0.11	1.24 ± 0.018	1.32 ± 0.023	1.11 ± 0.15	1.35 ± 0.051	1.04 ± 0.024	0.48 ± 0.072	0.242 ± 0.02	1.02 ± 0.06	0.947 ± 0.1	1.05 ± 0.064	0.875 ± 0.11	0.492 ± 0.02	0.363 ± 0.02	0.172 ± 0.011	0.127 ± 0.0092
HCT15 LARGE INTESTINE	1.05 ± 0.022	1.04 ± 0.05	1.04 ± 0.022	1.05 ± 0.038	1.06 ± 0.051	1.06 ± 0.069	0.998 ± 0.057	0.799 ± 0.11	1.04 ± 0.026	1.03 ± 0.057	1.11 ± 0.041	1.1 ± 0.033	0.655 ± 0.035	0.525 ± 0.0089	0.249 ± 0.027	0.209 ± 0.0044
HELA CERVIX	1.01 ± 0.019	1.03 ± 0.043	0.999 ± 0.058	0.988 ± 0.079	1.11 ± 0.037	1.07 ± 0.048	1.09 ± 0.085	0.831 ± 0.029	1.05 ± 0.087	1.09 ± 0.069	1.112 ± 0.0048	1.02 ± 0.035	1.12 ± 0.061	1.2 ± 0.028	0.7 ± 0.019	0.4533 ± 0.0038
HOS BONE	1.01 ± 0.014	1.01 ± 0.024	0.996 ± 0.018	0.9907 ± 0.005	1.01 ± 0.035	1.002 ± 0.01	0.619 ± 0.023	0.16 ± 0.017	1.02 ± 0.034	1.05 ± 0.036	1.02 ± 0.014	1.01 ± 0.018	0.763 ± 0.034	0.591 ± 0.017	0.317 ± 0.015	0.285 ± 0.015
HOSMNG BONE	0.943 ± 0.14	0.937 ± 0.064	0.984 ± 0.072	0.964 ± 0.047	1.02 ± 0.072	1.05 ± 0.079	0.983 ± 0.096	0.0657 ± 0.0067	0.956 ± 0.014	0.96 ± 0.041	0.929 ± 0.022	0.958 ± 0.05	0.917 ± 0.044	0.772 ± 0.035	0.426 ± 0.0052	0.297 ± 0.012
HSSYII SYNOVIAL	0.9423 ± 0.0023	0.918 ± 0.0061	0.956 ± 0.042	0.94 ± 0.066	0.884 ± 0.039	0.74 ± 0.015	0.139 ± 0.0076	0.077 ± 0.0027	0.963 ± 0.072	0.921 ± 0.062	0.933 ± 0.012	0.88 ± 0.032	0.548 ± 0.017	0.38 ± 0.0082	0.165 ± 0.0072	0.129 ± 0.013
HT1080 SOFT TISSUE	1.04 ± 0.044	1.03 ± 0.011	1.04 ± 0.017	1.04 ± 0.023	1 ± 0.028	0.972 ± 0.041	0.707 ± 0.018	0.398 ± 0.012	0.985 ± 0.022	1.03 ± 0.011	1 ± 0.025	0.996 ± 0.055	0.6683 ± 0.0059	0.496 ± 0.021	0.221 ± 0.01	0.162 ± 0.0061
HU09 BONE	1.05 ± 0.11	0.964 ± 0.017	1.02 ± 0.086	1.02 ± 0.092	1.07 ± 0.13	0.903 ± 0.12	0.437 ± 0.063	0.261 ± 0.054	1.04 ± 0.18	1.07 ± 0.059	1.19 ± 0.053	1.12 ± 0.1	0.572 ± 0.025	0.416 ± 0.025	0.181 ± 0.013	0.134 ± 0.006
HUO3N1 BONE	1.11 ± 0.059	1.05 ± 0.032	1.07 ± 0.023	1.07 ± 0.072	1.13 ± 0.071	0.982 ± 0.031	0.7257 ± 0.0065	0.486 ± 0.025	0.992 ± 0.041	1.04 ± 0.042	0.946 ± 0.025	0.994 ± 0.039	0.838 ± 0.071	0.631 ± 0.031	0.341 ± 0.0053	0.258 ± 0.0061
JIMT1 BREAST	0.979 ± 0.019	0.966 ± 0.042	1.03 ± 0.01	0.988 ± 0.043	0.916 ± 0.053	0.467 ± 0.025	0.0688 ± 0.0064	0.0615 ± 0.0039	1.03 ± 0.031	0.992 ± 0.024	0.983 ± 0.0095	0.992 ± 0.019	0.732 ± 0.03	0.464 ± 0.04	0.21 ± 0.013	0.194 ± 0.009
JURKAT HAEMATOPOIETIC AND LYMPHOID TISSUE	1.08 ± 0.028	1.07 ± 0.013	1.05 ± 0.015	1.01 ± 0.021	0.927 ± 0.038	0.948 ± 0.02	0.619 ± 0.029	0.103 ± 0.014	1.05 ± 0.03	1.07 ± 0.032	1.05 ± 0.024	1.05 ± 0.03	0.788 ± 0.021	0.582 ± 0.021	0.211 ± 0.0053	0.056 ± 0.001
KPD BONE	1.04 ± 0.068	0.982 ± 0.083	1.03 ± 0.1	1.05 ± 0.11	1.06 ± 0.054	0.979 ± 0.025	0.4 ± 0.025	0.224 ± 0.028	0.977 ± 0.065	1.01 ± 0.061	1 ± 0.024	0.951 ± 0.032	0.525 ± 0.029	0.361 ± 0.0087	0.0903 ± 0.0011	0.0727 ± 0.0025
LM7 BONE	0.96 ± 0.013	0.916 ± 0.015	0.945 ± 0.068	1.02 ± 0.054	1.06 ± 0.086	0.99 ± 0.099	0.835 ± 0.11	0.528 ± 0.077	0.941 ± 0.042	1 ± 0.1	1.02 ± 0.094	1.07 ± 0.062	0.975 ± 0.077	0.845 ± 0.063	0.366 ± 0.016	0.312 ± 0.024
LNCAP PROSTATE	0.913 ± 0.085	0.863 ± 0.11	0.863 ± 0.015	0.92 ± 0.05	0.85 ± 0.064	0.855 ± 0.041	0.549 ± 0.047	0.464 ± 0.036	0.998 ± 0.11	0.934 ± 0.06	0.887 ± 0.14	0.9 ± 0.12	0.405 ± 0.016	0.255 ± 0.039	0.087 ± 0.014	0.0853 ± 0.011
MCF7 BREAST	0.896 ± 0.012	0.87 ± 0.042	0.873 ± 0.069	0.881 ± 0.063	0.904 ± 0.026	0.813 ± 0.046	0.751 ± 0.016	0.697 ± 0.023	0.934 ± 0.071	0.961 ± 0.017	0.943 ± 0.064	0.941 ± 0.036	0.681 ± 0.023	0.5461 ± 0.0041	0.328 ± 0.012	0.2896 ± 0.0025
MDAMB134 BREAST	0.726 ± 0.035	0.791 ± 0.072	0.766 ± 0.071	0.663 ± 0.12	0.66 ± 0.073	0.6525 ± 0.005	0.497 ± 0.054	0.488 ± 0.02	1.08 ± 0.058	1.17 ± 0.033	1.11 ± 0.024	1.09 ± 0.021	0.881 ± 0.025	0.83 ± 0.083	0.474 ± 0.15	0.476 ± 0.03
MDAMB157 BREAST	0.946 ± 0.057	0.982 ± 0.033	1.01 ± 0.021	0.947 ± 0.048	1.03 ± 0.051	0.902 ± 0.11	0.239 ± 0.015	0.136 ± 0.029	0.983 ± 0.056	0.974 ± 0.1	0.936 ± 0.12	1.02 ± 0.11	0.825 ± 0.094	0.752 ± 0.081	0.454 ± 0.06	0.381 ± 0.008
MDAMB231 BREAST	0.9579 ± 0.0095	0.9571 ± 0.0043	0.93 ± 0.076	0.959 ± 0.024	0.9788 ± 0.0062	0.961 ± 0.02	0.743 ± 0.029	0.492 ± 0.0092	1.01 ± 0.026	1.02 ± 0.034	1.01 ± 0.032	0.959 ± 0.037	0.574 ± 0.016	0.437 ± 0.019	0.231 ± 0.0068	0.227 ± 0.013
MDAMB361 BREAST	0.818 ± 0.021	0.744 ± 0.048	0.752 ± 0.058	0.775 ± 0.053	0.724 ± 0.03	0.547 ± 0.056	0.481 ± 0.02	0.488 ± 0.04	0.888 ± 0.068	0.854 ± 0.045	0.904 ± 0.03	0.882 ± 0.051	0.794 ± 0.078	0.636 ± 0.037	0.355 ± 0.015	0.313 ± 0.02
